Test system: not given
Test: not given
Conditions: 0.25 g compound, 0.50 g water, 0.10 g barium titanate; visual

| SMILES | Barium titanate dispersibility |
| --- | --- |
| NC(CO)(CO)CO [Working example 109] | ○ ○ ○ ○ |

Molecular target: T1, urease (Canavalia ensiformis, UniProt P07374)
Test: not given
Type: biochemical, sword bean
Conditions: not given

T1 sequence (P07374 whole entry, looked up): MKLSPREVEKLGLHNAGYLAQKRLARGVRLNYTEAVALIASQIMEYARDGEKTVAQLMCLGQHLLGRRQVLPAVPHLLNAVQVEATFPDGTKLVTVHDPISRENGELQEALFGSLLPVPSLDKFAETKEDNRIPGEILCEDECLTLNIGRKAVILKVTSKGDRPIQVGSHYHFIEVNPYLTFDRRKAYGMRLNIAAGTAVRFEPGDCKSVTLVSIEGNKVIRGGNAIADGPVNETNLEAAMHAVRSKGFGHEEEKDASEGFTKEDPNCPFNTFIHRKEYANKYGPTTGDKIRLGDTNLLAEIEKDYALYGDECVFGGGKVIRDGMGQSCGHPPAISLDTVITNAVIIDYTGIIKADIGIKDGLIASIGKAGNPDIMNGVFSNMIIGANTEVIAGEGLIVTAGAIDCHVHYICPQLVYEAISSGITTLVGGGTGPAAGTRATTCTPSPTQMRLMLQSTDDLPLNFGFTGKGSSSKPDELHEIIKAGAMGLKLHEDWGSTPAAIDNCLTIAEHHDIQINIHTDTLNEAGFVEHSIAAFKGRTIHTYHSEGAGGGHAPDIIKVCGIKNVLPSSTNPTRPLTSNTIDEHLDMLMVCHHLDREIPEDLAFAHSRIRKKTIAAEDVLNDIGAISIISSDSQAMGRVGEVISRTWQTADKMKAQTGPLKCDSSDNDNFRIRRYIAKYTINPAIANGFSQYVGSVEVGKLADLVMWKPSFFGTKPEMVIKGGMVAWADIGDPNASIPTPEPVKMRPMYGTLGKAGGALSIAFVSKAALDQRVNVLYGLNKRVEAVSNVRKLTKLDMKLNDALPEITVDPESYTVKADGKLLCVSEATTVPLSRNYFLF

| SMILES | Enzyme activity retention rate(%) (after 30 days) Stabilizer: Enzyme = 1:1 |
| --- | --- |
| CC(O)C(=O)O.CCCCN(CCCC)CCCC [Comparative example 1, Tributyl Ammonium Lactate, reference compound] | 0 |
| O=C[C@H](O)[C@@H](O)[C@H](O)[C@H](O)CO [Comparative example 4, Glucose, reference compound] | 0 |
| Br.NC(CO)(CO)CO [Working example 78] | 3 |
| CCCCn1cc[n+](C)c1.[Br-] [Comparative example 3, BMI-Br, reference compound] | 0 |

Same assay, conditions: urease in 50 wt % aqueous solution of compound; 40° C., 80% RH; after 30 days; Stabilizer:Enzyme = 1:1

| SMILES | Enzyme activity retention rate(%) (after 30 days) Stabilizer: Enzyme = 1:1 |
| --- | --- |
| NC(CO)(CO)CO [Working example 83] | 20 |
| CC(=O)[O-].C[N+](C)(C)CCO [Comparative example 2, Choline Acetate, reference compound] | 2 |
| NC(CO)(CO)CO.O=C(O)c1ccccc1 [Working example 60] | 21 |
| OCCNCCO [Working example 24] | 10 |
| NC(CO)(CO)CO [Working example 3] | 32 |
| NCC(O)C(O)C(O)C(O)CO (centres unmarked) [Working example 29] | 11 |

Test system: not given
Test: not given
Conditions: dispersion liquid dried at 50° C. under reduced pressure for three hours, 0.50 g water added, remixed; visual

| SMILES | Redispersibility Titanium oxide |
| --- | --- |
| NC(CO)(CO)CO [Working example 109] | ○ ○ ○ ○ |

Molecular target: T1, urease
Test: not given
Type: biochemical, sword bean
Conditions: not given
Remark: another data set of the same source

| SMILES | Enzyme activity retention rate(%) (after 30 days) Stabilizer: Enzyme = 0.1:1 | Enzyme activity retention rate(%) (after 30 days) Stabilizer: Enzyme = 1:1 | Enzyme activity retention rate(%) (after 30 days) Stabilizer: Enzyme = 10:1 |
| --- | --- | --- | --- |
| CC(O)C(=O)O.CCCCN(CCCC)CCCC [Comparative example 1, Tributyl Ammonium Lactate, reference compound] | 0 | 0 | 0 |
| O=C[C@H](O)[C@@H](O)[C@H](O)[C@H](O)CO [Comparative example 4, Glucose, reference compound] | 0 | 0 | 0 |
| Br.NC(CO)(CO)CO [Working example 78] | 3 | 4 | 18 |
| CCCCn1cc[n+](C)c1.[Br-] [Comparative example 3, BMI-Br, reference compound] | 0 | 0 | 0 |

Same assay, conditions: solid sample, 40° C., 80% RH, after 30 days, Stabilizer:Enzyme = 0.1:1

| SMILES | Enzyme activity retention rate(%) (after 30 days) Stabilizer: Enzyme = 0.1:1 |
| --- | --- |
| NC(CO)(CO)CO [Working example 83] | 16 |
| CC(=O)[O-].C[N+](C)(C)CCO [Comparative example 2, Choline Acetate, reference compound] | 2 |
| NC(CO)(CO)CO.O=C(O)c1ccccc1 [Working example 60] | 7 |
| OCCNCCO [Working example 24] | 9 |
| NC(CO)(CO)CO [Working example 3] | 20 |
| NCC(O)C(O)C(O)C(O)CO (centres unmarked) [Working example 29] | 5 |

Same assay, conditions: solid sample, 40° C., 80% RH, after 30 days, Stabilizer:Enzyme = 1:1

| SMILES | Enzyme activity retention rate(%) (after 30 days) Stabilizer: Enzyme = 1:1 |
| --- | --- |
| NC(CO)(CO)CO [Working example 83] | 24 |
| CC(=O)[O-].C[N+](C)(C)CCO [Comparative example 2, Choline Acetate, reference compound] | 3 |
| NC(CO)(CO)CO.O=C(O)c1ccccc1 [Working example 60] | 20 |
| OCCNCCO [Working example 24] | 25 |
| NC(CO)(CO)CO [Working example 3] | 50 |
| NCC(O)C(O)C(O)C(O)CO (centres unmarked) [Working example 29] | 18 |

Same assay, conditions: solid sample, 40° C., 80% RH, after 30 days, Stabilizer:Enzyme = 10:1

| SMILES | Enzyme activity retention rate(%) (after 30 days) Stabilizer: Enzyme = 10:1 |
| --- | --- |
| NC(CO)(CO)CO [Working example 83] | 38 |
| CC(=O)[O-].C[N+](C)(C)CCO [Comparative example 2, Choline Acetate, reference compound] | 0 |
| NC(CO)(CO)CO.O=C(O)c1ccccc1 [Working example 60] | 29 |
| OCCNCCO [Working example 24] | 25 |
| NC(CO)(CO)CO [Working example 3] | 53 |
| NCC(O)C(O)C(O)C(O)CO (centres unmarked) [Working example 29] | 21 |

Test system: not given
Test: not given
Conditions: Vali Fast Black 3830 dispersion liquid dried at 50° C. under reduced pressure for three hours, 0.7 g water added, remixed; visual

| SMILES | Redispersibility Dye |
| --- | --- |
| NC(CO)(CO)CO [Working example 109] | ○ ○ ○ ○ |

Test system: not given
Test: not given
Conditions: dispersion liquid dried at 50° C. under reduced pressure for three hours, 0.50 g water added, remixed; visual
Remark: another data set of the same source

| SMILES | Redispersibility Zirconium oxide |
| --- | --- |
| NC(CO)(CO)CO [Working example 109] | ○ ○ ○ ○ |

Molecular target: T2, cytochrome C (Equus caballus, UniProt P00004)
T2 construct: a reagent produced by NACALAI TESQUE, INC; (Horse Heart, molecular weight 12384) was used; purchased NACALAI TESQUE, INC; host or cells: horse heart (tissue origin)
Test: Protein long-term stability, 50% aqueous solution
Design: species or system Horse
Conditions: not given
Procedure: At first, changes in amide absorption by IR spectrum were precisely observed, and there were confirmed the higher-order structures of protein (turn, α-helix, random coil, β-sheet). The amide I region (1,600 to 1,700 cm^−1) and the amide II region (1,500 to 1,600 cm^−1) were measured by ATR method using a Fourier transform infrared spectrophotometer (FT/IR-6100 by JASCO Corporation), and peaks were then detected based on a difference(s) between a cytochrome C-free organic ammonium salt sample (blank) and a cytochrome C-containing organic ammonium salt sample (sample).
Further, the activity state of cytochrome C (Fe^2+: reduced form, Fe^3+: oxidized form) was confirmed via absorptions in UV spectrum. The measurement was conducted using an ultraviolet-visible spectrophotometer and a quartz cell having an optical path width of 2 mm, immediately after diluting the cytochrome C-containing organic ammonium salt sample to 1% with a 50 mM phosphate buffer of pH 7.4 (prepared using 50 mM potassium dihydrogen phosphate and 50 mM dipotassium hydrogen phosphate).

T2 sequence (P00004 whole entry): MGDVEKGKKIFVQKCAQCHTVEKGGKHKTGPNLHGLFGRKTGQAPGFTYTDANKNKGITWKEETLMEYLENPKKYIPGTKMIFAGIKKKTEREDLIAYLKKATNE

| SMILES | Protein long-term stability (after 30 days) Stabilize:Protein = 1:1 |
| --- | --- |
| NC(CO)(CO)CO.O=C(O)c1ccccc1 [Working example 60] | ○ ○ ○ |
| Br.NC(CO)(CO)CO [Working example 78] | ○ ○ ○ |

Same assay, conditions: cytochrome C in 50 wt % aqueous solution of compound; 40° C.; after 30 days; 1:1

| SMILES | Protein long-term stability (after 30 days) Stabilize:Protein = 1:1 |
| --- | --- |
| NC(CO)(CO)CO [Working example 83] | ○ ○ ○ |
| OCCNCCO [Working example 24] | ○ |
| NC(CO)(CO)CO [Working example 3] | ○ ○ ○ |
| NCC(O)C(O)C(O)C(O)CO (centres unmarked) [Working example 29] | ○ |

Test system: not listed separately
Test: Metal oxide dispersibility test (zirconium oxide)
Type: physicochemical
Conditions: 0.25 g compound, 0.50 g water, 0.10 g zirconium oxide (IV); visual

| SMILES | Zirconium oxide dispersibility |
| --- | --- |
| NC(CO)(CO)CO [Working example 109] | ○ ○ ○ ○ |

Test system: not listed separately
Test: Organic dye dispersibility test
Type: physicochemical
Conditions: 0.2 g compound, 0.7 g water, 0.1 g Vali Fast Black 3830; ultrasonic dispersion; after 24 hours; visual

| SMILES | Dye dispersibility |
| --- | --- |
| NC(CO)(CO)CO [Working example 109] | ○ ○ ○ ○ |

Molecular target: T1, urease
Test: not given
Type: biochemical, sword bean
Conditions: not given
Remark: another data set of the same source

| SMILES | Enzyme activity retention rate (%) (after 30 days) Stabilizer:Enzyme = 1:1, Mixed by mortar | Enzyme activity retention rate (%) (after 30 days) Stabilizer:Enzyme = 1:1, Solvent distilled away from dissolution solution |
| --- | --- | --- |
| CC(O)C(=O)O.CCCCN(CCCC)CCCC [Comparative example 1, Tributyl Ammonium Lactate, reference compound] | 0 | 0 |
| O=C[C@H](O)[C@@H](O)[C@H](O)[C@H](O)CO [Comparative example 4, Glucose, reference compound] | 0 | 0 |
| Br.NC(CO)(CO)CO [Working example 78] | 0 | 24 |
| CCCCn1cc[n+](C)c1.[Br-] [Comparative example 3, BMI-Br, reference compound] | 0 | 0 |

Same assay, conditions: urease; solid sample mixed by mortar; 40° C., 80% RH; after 30 days; 1:1

| SMILES | Enzyme activity retention rate (%) (after 30 days) Stabilizer:Enzyme = 1:1, Mixed by mortar |
| --- | --- |
| NC(CO)(CO)CO [Working example 83] | 0 |
| CC(=O)[O-].C[N+](C)(C)CCO [Comparative example 2, Choline Acetate, reference compound] | 0 |
| NC(CO)(CO)CO.O=C(O)c1ccccc1 [Working example 60] | 0 |
| OCCNCCO [Working example 24] | 5 |
| NC(CO)(CO)CO [Working example 3] | 11 |
| NCC(O)C(O)C(O)C(O)CO (centres unmarked) [Working example 29] | 0 |

Same assay, conditions: urease; solid sample, solvent distilled away from dissolution solution; 40° C., 80% RH; after 30 days; 1:1

| SMILES | Enzyme activity retention rate (%) (after 30 days) Stabilizer:Enzyme = 1:1, Solvent distilled away from dissolution solution |
| --- | --- |
| NC(CO)(CO)CO [Working example 83] | 24 |
| CC(=O)[O-].C[N+](C)(C)CCO [Comparative example 2, Choline Acetate, reference compound] | 3 |
| NC(CO)(CO)CO.O=C(O)c1ccccc1 [Working example 60] | 20 |
| OCCNCCO [Working example 24] | 25 |
| NC(CO)(CO)CO [Working example 3] | 50 |
| NCC(O)C(O)C(O)C(O)CO (centres unmarked) [Working example 29] | 18 |

Test system: not listed separately
Test: Metal oxide dispersibility test (titanium oxide)
Type: physicochemical
Conditions: 0.25 g compound, 0.50 g water, 0.10 g titanium oxide (IV); visual

| SMILES | Titanium oxide dispersibility |
| --- | --- |
| NC(CO)(CO)CO [Working example 109] | ○ ○ ○ ○ |

Molecular target: T2, cytochrome C
Test: Protein long-term stability (IR and UV spectrum), solid sample
Design: species or system Horse
Conditions: not given

| SMILES | Protein long-term stability (after 30 days) Stabilizer: Protein = 0.1:1 | Protein long-term stability (after 30 days) Stabilizer: Protein = 1:1 | Protein long-term stability (after 30 days) Stabilizer: Protein = 10:1 |
| --- | --- | --- | --- |
| CC(O)C(=O)O.CCCCN(CCCC)CCCC [Comparative example 1, Tributyl Ammonium Lactate, reference compound] | × | × | × |
| CC(=O)[O-].C[N+](C)(C)CCO [Comparative example 2, Choline Acetate, reference compound] | × | × | × |
| NC(CO)(CO)CO.O=C(O)c1ccccc1 [Working example 60] | ◯ | ◯ | ◯ |
| Br.NC(CO)(CO)CO [Working example 78] | ◯ | ◯ | ◯ |

Same assay, conditions: cytochrome C, solid sample; 40° C., 80% RH; after 30 days; Stabilizer:Protein = 0.1:1

| SMILES | Protein long-term stability (after 30 days) Stabilizer: Protein = 0.1:1 |
| --- | --- |
| NC(CO)(CO)CO [Working example 83] | ◯ |
| OCCNCCO [Working example 24] | ◯ |
| O=C[C@H](O)[C@@H](O)[C@H](O)[C@H](O)CO [Comparative example 4, Glucose, reference compound] | × |
| NC(CO)(CO)CO [Working example 3] | ◯ |
| NCC(O)C(O)C(O)C(O)CO (centres unmarked) [Working example 29] | ◯ |
| CCCCn1cc[n+](C)c1.[Br-] [Comparative example 3, BMI-Br, reference compound] | × |

Same assay, conditions: cytochrome C, solid sample; 40° C., 80% RH; after 30 days; Stabilizer:Protein = 1:1

| SMILES | Protein long-term stability (after 30 days) Stabilizer: Protein = 1:1 |
| --- | --- |
| NC(CO)(CO)CO [Working example 83] | ◯ |
| OCCNCCO [Working example 24] | ◯ |
| O=C[C@H](O)[C@@H](O)[C@H](O)[C@H](O)CO [Comparative example 4, Glucose, reference compound] | × |
| NC(CO)(CO)CO [Working example 3] | ◯ |
| NCC(O)C(O)C(O)C(O)CO (centres unmarked) [Working example 29] | ◯ |
| CCCCn1cc[n+](C)c1.[Br-] [Comparative example 3, BMI-Br, reference compound] | × |

Same assay, conditions: cytochrome C, solid sample; 40° C., 80% RH; after 30 days; Stabilizer:Protein = 10:1

| SMILES | Protein long-term stability (after 30 days) Stabilizer: Protein = 10:1 |
| --- | --- |
| NC(CO)(CO)CO [Working example 83] | ◯ |
| OCCNCCO [Working example 24] | ◯ |
| O=C[C@H](O)[C@@H](O)[C@H](O)[C@H](O)CO [Comparative example 4, Glucose, reference compound] | × |
| NC(CO)(CO)CO [Working example 3] | ◯ |
| NCC(O)C(O)C(O)C(O)CO (centres unmarked) [Working example 29] | ◯ |
| CCCCn1cc[n+](C)c1.[Br-] [Comparative example 3, BMI-Br, reference compound] | × |

Test system: not given
Test: not given
Conditions: 0.25 g compound, 0.50 g water, 0.10 g zinc oxide; visual

| SMILES | Zinc oxide dispersibility |
| --- | --- |
| NC(CO)(CO)CO [Working example 109] | ○ ○ ○ ○ |
